Reference: patent publication US12485147B2, “Method for producing cell mass including pituitary tissue, and cell mass thereof” (SUMITOMO CHEMICAL COMPANY, LIMITED, priority 2017, dated 2025)

Tests used:
Assay type in all cases: cell-based
[1] = tested on: Human ES cells (KhES-1 strain); assay: Addition conditions of Wnt signal transduction pathway inhibiting substance in production of cell mass containing pituitary tissue; bright field observation; conditions: day 28; for size and condition of cell mass: 2 μM IWP-2, 5 μM KY02111, 1 μM XAV939, 1 μM IWR1e; for nonneural epithelial structure on surface of cell mass: IWP-2 2 μM, KY02111 5 μM, C-59 500 nM, LGK974 5 μM, XAV939 1 μM, IWR1-endo 1 μM added at start, with SB-431542, BMP4, SAG
Description: (§1) Human ES cells (KhES-1 strain) were cultured under feeder-free conditions according to the method described in Scientific Reports, 4, 3594 (2014). As the feeder-free medium, StemFit medium was used and, as the feeder-free scaffold, Laminin 511-E8 was used.
(§2) Specific maintenance culturing operation was performed in the same manner as in Example 1.
Thereafter, suspension culturing in a 96 well plate was performed under conditions similar to those in Example 1 except that the kind or the presence or absence of the Wnt signal transduction pathway inhibiting substance to be added at the start of suspension culturing was changed. As the Wnt signal transduction pathway inhibiting substances, IWP-2, C-59 (manufactured by Cayman Chemicals, 500 nM), LGK974 (manufactured by Cayman Chemicals, 5 μM) which are PORCN inhibitors; XAV939 (manufactured by Cayman Chemicals, 1 μM), IWR1-endo (manufactured by Merck Millipore, 1 μM) which are TANK inhibitors, and KY02111 (manufactured by Cayman Chemicals, 5 μM) whose action mechanism has not been reported were added at the start of the suspension culturing, and the condition with the addition of DMSO alone as a control of no addition of a Wnt signal transduction pathway inhibiting substance was performed.
A serum-free medium not containing Y27632 and containing each Wnt signal transduction pathway inhibiting substance, SB-431542, BMP4, and SAG was added at 100 μl per well on day 2 from the start of suspension culturing. BMP4 was added at 3 nM to the medium so that the final concentration in the well would be 1.5 nM, and SAG was added at 4 μM to the medium so that the final concentration in the well would be 2 μM.
A half amount of the medium was changed with a serum-free medium not containing Y27632 or BMP4 and containing each Wnt signal transduction pathway inhibiting substance, SB-431542 and SAG on days 6, 10, 13, 17, 21, 24 from the start of suspension culturing. In addition to the above-mentioned conditions, the condition in which neither SB431542 nor a Wnt signal transduction pathway inhibiting substance is added during suspension culturing was also performed.
Bright field observation was performed using an inverted microscope (manufactured by KEYENCE CORPORATION, BIOREVO) on day 28 from the start of suspension culturing (FIGS. 7A-H).

[2] = tested on: Human iPS cells (HC-6 #10 strain); assay: Cell mass from human iPS cells using Wnt signal transduction pathway activating substance (CHIR99021) and inhibiting substance in combination; bright field observation and immunostaining
Description: Human iPS cells (HC-6 #10 strain, obtained from RIKEN) were cultured under feeder-free conditions according to the method described in Scientific Reports, 4, 3594 (2014). As the feeder-free medium, StemFit medium was used and, as the feeder-free scaffold, Laminin 511-E8 was used. Specific maintenance culturing operation was performed in the same manner as in Example 1. The thus-prepared subconfluent human iPS cells were washed with PBS, subjected to an enzyme treatment using Accumax, a serum-free medium for differentiation induction was added, and the cells were scraped from the surface of the culture dish by using a cell scraper and dispersed into single cells by pipetting. Thereafter, the aforementioned human ES cells dispersed into single cells were suspended in 100 μl of a serum-free medium at 9×10^3 cells per well of a non-cell-adhesive 96-well culture plate (PrimeSurface […]-bottom plate, manufactured by SUMITOMO BAKELITE), and cultured in suspension under the conditions of 37° C., 5% CO2. As the serum-free medium ([…]) therefor, a serum-free medium which is a 1:1 mixture of F-12+Glutamax medium (manufactured by Thermo Fisher Scientific) and IMDM+Glutamax medium (manufactured by Thermo Fisher Scientific) supplemented with 5% Knockout Serum Replacement (manufactured by Thermo Fisher Scientific), 450 μM 1-monothioglycerol (manufactured by Wako Pure Chemical Industries, Ltd.), 1× Chemically defined lipid concentrate (manufactured by Thermo Fisher Scientific), 50 unit/ml penicillin-50 μg/ml streptomycin (manufactured by Nacalai Tesque) was used. At the time of the start of suspension culturing (day 0 from the start of suspension culturing, start of step 1), Y27632 (final concentration 20 μM), SB-431542 (TGFβ signal transduction pathway inhibiting substance, manufactured by Wako Pure Chemical Industries, Ltd., 1 μM), and IWP-2 (Wnt signal transduction pathway inhibiting substance, manufactured by Tocris Bioscience, 2 μM) were added to the aforementioned serum-free medium. In addition, conditions in which CHIR99021 (manufactured by Cayman Chemical) is added at 300 nM, 1 μM, 3 μM as a Wnt signal transduction pathway activating substance, and conditions in which DMSO alone is added as a control of no addition were set, totaling in 4 conditions. In the present Example, CHIR99021 is sometimes referred to as CHIR. A serum-free medium not containing Y27632 and containing SB-431542, IWP-2, BMP4 (BMP signal transduction pathway activating substance) and CHIR99021 under each condition set was added at 100 μl per well on day 2 from the start of suspension culturing. BMP4 was added at 3 nM to the medium so that the final concentration in the well would be 1.5 nM. As a method for inducing cell mass containing nonneural epithelium and placode, a half amount of the medium was changed with a serum-free medium not containing Y27632 or BMP4, and containing IWP-2, SB-431542, K02288 (BMP signal transduction pathway inhibiting substance, manufactured by AdooQ Bioscience), FGF2-TS (FGF signal transduction pathway activating substance, manufactured by HumanZyme) and Heparin Sodium (manufactured by FUJIFILM Wako Pure Chemical Corporation) on day 3 from the start of suspension culturing. K02288, FGF2, and Heparin Sodium were respectively added at 2 μM, 40 ng/ml, and 20 μg/ml to the medium so that the final concentration in the well would be respectively 1 μM, 20 ng/ml, and 10 μg/ml. A half amount of the medium was changed on day 6 and day 10 from the start of suspension culturing. On day 13 from the start of suspension culturing, bright field observation was performed under an inverted microscope (FIGS. 11A-D). […] The above-mentioned cell masses on day 13 of the culturing were fixed by a method similar to that in Example 1 to prepare cryosections. […]

[3] = tested on: Human ES cells (KhES-1 strain); assay: TGFβ signal transduction pathway inhibitory conditions in production of cell mass containing pituitary tissue; conditions: IWP-2 added, no TGFβ signal transduction pathway inhibiting substance; day 28
Description: as §1, §2
Thereafter, suspension culturing in a 96 well plate was performed under conditions similar to those in Example 1 except that the concentration and kind of the TGFβ signal transduction pathway inhibiting substance to be added at the start of the suspension culturing are changed. As the TGFβ signal transduction pathway inhibiting substance therefor, SB431542 (1 or 10 μM), A 83-01 (manufactured by Cayman Chemicals, 1 or 10 μM), and RepSox (manufactured by Cayman Chemicals, 1 μM) were added at respective concentration conditions.
Thereafter, a serum-free medium not containing Y27632 and containing IWP-2, each TGFβ signal transduction pathway inhibiting substance, BMP4, and SAG was added at 100 μl per well on day 2 from the start of suspension culturing. BMP4 was added at 3 nM to the medium so that the final concentration in the well would be 1.5 nM, and SAG was added at 4 μM to the medium so that the final concentration in the well would be 2 μM.
A half amount of the medium was changed with a serum-free medium not containing Y27632 or BMP4 and containing IWP-2, each TGFβ signal transduction pathway inhibiting substance, and SAG on days 6, 10, 13, 17, 21, 24 from the start of suspension culturing. In addition to the above-mentioned conditions, the condition in which neither a TGFβ signal transduction pathway inhibiting substance nor IWP-2 is added during suspension culturing, and the condition in which IWP-2 is added and a TGFβ signal transduction pathway inhibiting substance is not added during suspension culturing were also performed.

[4] = tested on: Human ES cells (KhES-1 strain); assay: Effect of compound treatment before differentiation induction in production of cell mass containing pituitary tissue; bright field observation; conditions: pre-treatment with 5 μM SB-431542 alone; day 28
Description: Human ES cells (KhES-1 strain) were cultured under feeder-free conditions according to the method described in Scientific Reports, 4, 3594 (2014). As the feeder-free medium, StemFit medium was used and, as the feeder-free scaffold, Laminin 511-E8 was used. Specific maintenance culturing operation was performed in the same manner as in Example 1. As a pre-treatment for differentiation induction of the cultured cells, cells under 4 conditions were maintenance cultured under conditions in which, condition in which nothing is simultaneously added with medium change with […] medium (Control), conditions in which 300 nM SAG alone is added (+300 nM SAG), conditions in which 5 μM SB-431542 alone is added (+5 μM SB-431542), and conditions in which SAG and SB431542 are simultaneously added (+SAG/SB) at 6 days after seeding. The next day of the above-mentioned treatment, human ES cells under 4 conditions that reached subconfluence were each subjected to differentiation induction by suspension culturing into a cell mass containing pituitary tissue according to the method described in Example 1. Bright field observation was performed under an inverted microscope on day 28 from the start of suspension culturing (FIGS. 6A-D).

[5] = 300 nM CHIR vs no addition, day 13

COc1ccc(CCC(=O)Nc2nc3ccc(Cl)cc3s2)cc1OC [KY02111]
size and condition of cell mass [1]: large cell masses in good condition were formed | nonneural epithelial structure on surface of cell mass [1]: cell masses having a nonneural epithelial structure on the surface were formed

Cc1c[nH]c(-c2cnc(NCCNc3ccc(C#N)cn3)nc2-c2ccc(Cl)cc2Cl)n1 [CHIR99021]
neural tissue in the inside [2, 5]: survival of neural tissue in the inside and epithelial formation were promoted | size of cell mass [2, 5]: larger cell masses were formed | marker-positive tissue formation (immunostaining) ([2]; 300 nM, 1 μM CHIR (also no addition), day 13): formation of Dlx5, Six1, E-Cadherin, N-Cadherin positive nonneural epithelium or placode precursor tissue | nonneural epithelium thickening and placode formation ([2]; 1 μM CHIR, day 13): thickening of nonneural epithelium on the outside and formation of placode were suppressed | formation of nonneural epithelial tissue on surface (bright field) ([2]; 3 μM CHIR99021, day 13): formation of nonneural epithelial tissue on the surface of cell mass is inhibited | formation of nonneural epithelium (immunostaining) ([2]; 3 μM CHIR, day 13): Formation of nonneural epithelium was not observed | growth of cell masses (bright field) ([2]; CHIR99021 300 nM, 1 μM, 3 μM in presence of IWP-2, day 13): cell masses grow in a concentration-dependent manner | level effective for growth of whole cell masses, survival of neural tissue in the inside and promotion of epithelial formation ([2]; in the presence of IWP-2): not more than 3 μM

Cc1ccc2nc(NC(=O)CSc3nc4c(c(=O)n3-c3ccccc3)SCC4)sc2c1 [IWP-2]
size and condition of cell mass [1]: large cell masses in good condition were formed | nonneural epithelial structure on surface of cell mass [1]: cell masses having a nonneural epithelial structure on the surface were formed | mesenchymal cell between outer nonneural epithelial tissue and inner neuroepithelial tissue [3]: a mesenchymal cell could not be confirmed | nonneural epithelial structure on surface of cell mass [3]: a nonneural epithelial structure was formed on the surface of the cell mass | size of cell mass [3]: the formed cell mass was small

Oc1nc(-c2ccc(C(F)(F)F)cc2)nc2c1CSCC2 [XAV939]
size and condition of cell mass [1]: large cell masses in good condition were formed | nonneural epithelial structure on surface of cell mass [1]: cell masses having a nonneural epithelial structure on the surface were formed

Cc1cc(-c2ncc(CC(=O)Nc3ccc(-c4cnccn4)cn3)cc2C)ccn1 [LGK974]
nonneural epithelial structure on surface of cell mass [1]: cell masses having a nonneural epithelial structure on the surface were formed

Cc1cc(-c2ccc(CC(=O)Nc3ccc(-c4cccnc4)cc3)cc2)ccn1 [C59]
nonneural epithelial structure on surface of cell mass [1]: cell masses having a nonneural epithelial structure on the surface were formed

NC(=O)c1ccc(-c2nc(-c3ccc4c(c3)OCO4)c(-c3ccccn3)[nH]2)cc1 [SB431542, 4-(5-benzol[1,3]dioxol-5-yl-4-pyridin-2-yl-1H-imidazol-2-yl)-benzamide]
nonneural epithelial tissue on surface of cell mass ([1]; SB431542 added, no Wnt signal transduction pathway inhibiting substance): nonneural epithelial tissue was not formed on the surface of the cell masses | cell mass formation [4]: larger cell masses containing pituitary tissues were formed

O=C(Nc1cccc2cccnc12)c1ccc(N2C(=O)[C@@H]3[C@H](C2=O)[C@@H]2C=C[C@H]3C2)cc1 [IWR1-endo]
size and condition of cell mass [1]: large cell masses in good condition were formed | nonneural epithelial structure on surface of cell mass [1]: cell masses having a nonneural epithelial structure on the surface were formed
